Where a name gives a salt, the structure may show the parent alone. Read-outs that look alike come from different tables or passages of the source.
Assays:
JNK3 = target: T1, JNK3 (Homo sapiens, UniProt P53779); experiment: JNK3 kinase assay; format: biochemical
T1 construct: purchased Upstate 14-501
Procedure: • 1. 10× Reaction Buffer: 500 mM Tris-HCl pH 7.5, 1 mM EGTA, 1% 2-mercaptoethanol. • 2. Enzyme Dilution Buffer (EDB): 50 mM Tris-HCl pH 7.5, 0.1 mM EGTA, 0.1% 2-mercaptoethanol, 1 mg/ml BSA, 0.03% Brij-35. • 3. JNK3/SAPK1b, active: Dilute to 4-24 ng/μl with EDB. Use 2.5 μl per assay point. • 4. ATF2 (amino acids 19-96) (Catalog #12-367): Prepare a 1.08 mg/ml stock. Use 2.5 μl per assay point for a final concentration of 3 μM per assay point. • 5. [γ-^32P]ATP: Stock 1 mCi/100 μl (3000 Ci/mmol, obtained from PerkinElmer, Cat. # BLU002A). Make 10 μl aliquots (100 μCi/vial). Before starting the assay, dilute an aliquot to 1 μCi/μl with 90 μl of 75 mM MgCl2 and 500 μM cold ATP in 20 mM MOPS, pH 7.2, 25 mM β-glycerol phosphate, 5 mM EGTA, 1 mM sodium orthovanadate, 1 mM dithiothreitol.
• 1. Add 2.5 μl of 10× Reaction Buffer per assay. • 2. Add 2.5 μl of ATF2 (amino acids 19-96). • 3. Add 2.5 μl (10-60 ng) JNK3/SAPK1b, active. • 4. Add 7.5 μl of sterile, distilled water. • 5. Add 10 μl of the diluted [γ-^32P]ATP mixture. • 6. Incubate for 10 minutes at 30° C. • 7. Transfer a 20 μl aliquot onto the center of a 2 cm×2 cm P81 paper. • 8. Wash the assay squares three times for 5 minutes with 0.75% phosphoric acid. • 9. Wash the assay squares once for 5 minutes with acetone. • 10. Transfer the assay squares to vial and add 5 ml scintillation cocktail. • 11. Read in scintillation counter. Compare cpm of enzyme samples to cpm of control samples that contain background control.

CEM = experiment: SRB cytotoxicity, CEM parental cells; format: cell-based; conditions: Homo sapiens, CCRF-CEM, 72 h
Procedure: In these experiments, the P-glycoprotein expressing NCI-Adr resistant subline (Vickers et al., 1989. Mol Endocrinology 3 (1):157-164) was used. […] Briefly, cells were plated in 96 well dishes 24 hours prior to compound addition. Where noted, they were exposed to verapamil for 4 hours prior to compound addition and then throughout the treatment period (72 hours). The assay was terminated with the addition of cold TCA to a final concentration of 10% and the plates were incubated for one hour at 4° C. The plates were then washed 5 times with water and 100 μl of a Sulforhodamine B solution (4%) was added to each well. The plate was then incubated for 10 minutes at room temperature before removal of unbound dye by washing with 1% acetic acid.
The Camptothecin resistant CEM/C2 cells were derived from the T lymphoblastoid leukemia cell line CCRF/CEM by selection in the presence of Camptothecin in vitro (Kapoor et al., 1995. Oncology Research 7; 83-95, ATCC).
The effects of A37 and B16 were evaluated in the CCRF/CEM and CEM/C2 cells using the same SRB assay as described above, with 72-hour drug exposure.

Abl (c-Abl) = target: T2, Abl (c-Abl) (Homo sapiens, UniProt P00519); experiment: Abl kinase assay; format: biochemical
T2 construct: purchased Upstate 14-529
T2 sequence (P00519 whole entry): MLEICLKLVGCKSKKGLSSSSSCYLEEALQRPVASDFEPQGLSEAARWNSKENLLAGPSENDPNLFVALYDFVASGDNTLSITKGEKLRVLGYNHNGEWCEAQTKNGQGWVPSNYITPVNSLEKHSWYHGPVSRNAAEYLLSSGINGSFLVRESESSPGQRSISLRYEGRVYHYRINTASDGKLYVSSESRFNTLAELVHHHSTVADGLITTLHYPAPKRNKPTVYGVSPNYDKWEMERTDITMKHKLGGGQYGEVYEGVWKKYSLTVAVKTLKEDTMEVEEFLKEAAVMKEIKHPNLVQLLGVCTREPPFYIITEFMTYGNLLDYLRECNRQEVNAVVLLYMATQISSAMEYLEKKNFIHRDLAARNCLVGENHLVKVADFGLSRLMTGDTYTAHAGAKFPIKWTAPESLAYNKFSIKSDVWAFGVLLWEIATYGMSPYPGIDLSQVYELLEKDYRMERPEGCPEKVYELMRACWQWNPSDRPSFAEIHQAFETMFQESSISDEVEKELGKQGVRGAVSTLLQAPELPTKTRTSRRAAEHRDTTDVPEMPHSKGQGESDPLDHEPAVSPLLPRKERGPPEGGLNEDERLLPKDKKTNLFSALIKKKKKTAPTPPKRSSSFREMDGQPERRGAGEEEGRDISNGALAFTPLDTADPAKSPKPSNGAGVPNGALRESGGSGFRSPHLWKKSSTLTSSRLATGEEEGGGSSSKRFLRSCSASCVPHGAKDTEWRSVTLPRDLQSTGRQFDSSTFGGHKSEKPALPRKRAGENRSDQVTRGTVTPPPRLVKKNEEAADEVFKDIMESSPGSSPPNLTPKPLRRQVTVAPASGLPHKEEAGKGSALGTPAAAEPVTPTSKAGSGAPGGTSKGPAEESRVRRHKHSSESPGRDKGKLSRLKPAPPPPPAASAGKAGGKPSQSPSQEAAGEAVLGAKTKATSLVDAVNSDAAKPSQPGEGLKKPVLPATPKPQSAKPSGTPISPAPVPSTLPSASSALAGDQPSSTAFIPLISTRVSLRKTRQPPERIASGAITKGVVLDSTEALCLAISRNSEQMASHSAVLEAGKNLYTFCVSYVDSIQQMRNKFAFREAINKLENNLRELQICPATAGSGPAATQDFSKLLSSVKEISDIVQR
Procedure: • 1. 5× Reaction Buffer: 40 mM MOPS, pH 7.0, 1 mM EDTA. • 2. Enzyme Dilution Buffer (EDB): 20 mM MOPS, pH 7.0, 1 mM EDTA, 0.01% Brij-35, 5% glycerol, 0.1% β-mercaptoethanol, 1 mg/ml BSA. • 3. Abl, active: Dilute to 0.2-8 ng/μl with EDB. Use 2.5-μl per assay point. • 4. […] Use 2.5 μl per assay point for a final assay concentration of 50 μM per assay point. • 5. [γ-^32P]ATP: Stock 1 mCi/100 μl (3000 Ci/mmol, obtained from PerkinElmer, Cat. # BLU002A). Make 10 μl aliquots (100 μCi/vial).
• 1. Add 5 μl of 5× Reaction Buffer per assay. • 2. Add 2.5 μl of Abltide (50 μM). • 3. Add 2.5 μl of Abl (human), active (0.5-20 ng). • 4. Add 5 μl sterile, distilled water. • 5. Add 10 μl of the diluted [γ-^32P]ATP solution. • 6. Incubate for 10 minutes at 30° C. • 7. Transfer a 20 μl aliquot onto the center of a 2 cm×2 cm P81 paper. • 8. […] Wash the assay squares once for 5 minutes with acetone. • 10. Transfer the assay squares to vial and add 5 ml scintillation cocktail. • 11. Read in scintillation counter. Compare cpm of enzyme samples to cpm of control samples that contain background control.

[1] = kinase panel, 10 μM ATP, read-out: JNK3 IC50
[2] = read-out: MAPK10 Inhibition (IC50)
[3] = Table II, read-out: ABL1 Inhibition (IC50)
[4] = read-out: Abl (wild-type c-Abl) IC50

T1 sequence (P53779 39-464): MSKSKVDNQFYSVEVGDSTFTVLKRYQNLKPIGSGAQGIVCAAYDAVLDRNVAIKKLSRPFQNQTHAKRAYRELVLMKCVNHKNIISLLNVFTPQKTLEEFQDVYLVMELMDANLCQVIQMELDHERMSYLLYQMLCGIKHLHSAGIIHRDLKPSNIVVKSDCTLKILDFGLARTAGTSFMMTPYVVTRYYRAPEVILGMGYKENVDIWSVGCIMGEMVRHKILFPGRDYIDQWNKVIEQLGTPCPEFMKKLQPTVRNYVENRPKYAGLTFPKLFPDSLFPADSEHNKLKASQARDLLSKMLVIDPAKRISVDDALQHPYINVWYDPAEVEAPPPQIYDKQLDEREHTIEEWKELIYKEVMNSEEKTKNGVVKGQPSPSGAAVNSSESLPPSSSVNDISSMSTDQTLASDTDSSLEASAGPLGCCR

Compound	IC50 (JNK3; [1]) [nM]	IC50 (JNK3; [2]) [nM]	IC50 (CEM) [nM]	IC50 (Abl (c-Abl); Table AA, read-out: Abl IC50) [nM]	IC50 (Abl (c-Abl); [3]) [nM]	IC50 (Abl (c-Abl); [4]) [nM]
CC(C)N1CCN(C(=O)COc2ccc(-c3n[nH]c4c3C(=O)c3c(NC(=O)NN5CCOCC5)cccc3-4)cc2)CC1 [Compound A37]	10 to 100	< 50	21.3	35	< 50	< 50
COCCN1CCN(Cc2ccc(-c3n[nH]c4c3C(=O)c3c(NC(=O)NN5CCOCC5)cccc3-4)cc2)CC1 [Compound B16, N-[3-(4-{[4-(2-methoxyethyl)piperazinyl]methyl}phenyl)-4-oxoindeno[2,3-d]pyrazol-5-yl](morpholin-4-ylamino)carboxamide dihydrochloride]	< 100	< 50	25	52	< 100	< 100

Reference: patent US20080146555A1, “Uses of Kinase Inhibitors and Compositions Thereof” (GPC Biotech, Inc, priority 2004, published 2008)
